The term melting point denotes the temperature, or range, at which the solid turns liquid. As a reminder, the IC50 is the concentration at which inhibition is half-maximal.

The source of these data is patent US20130029983A1, “AMINOTHIENOPYRIDAZINE INHIBITORS OF TAU ASSEMBLY” (priority 2009, published 2013).

Where two headings read alike, the source gives them in different places.

The target in series [1] is T1, K18PL tau (Homo sapiens, UniProt P10636, P618L).
T1 construct: (K18PL; amino acids 244-369); made in house
The series is described as follows: Heparin-induced K18PL tau fibrillization assay monitored by ThT fluorescence. Type of series: biochemical. The settings on record: for inhibition at 80 µM: highest tested concentration (80 μM), read-out: Tau ThT Assay % Inhib.; for IC50: logarithm of IC50, K18PL tau ThT fluorescence inhibition, read-out: Tau ThT Assay Log IC50 (converted). On the procedure:
Tau fibril formation reactions were performed essentially as described (Crowe, A., Ballatore, C., Hyde, E., Trojanowski, J. Q., and Lee, V. M. Y. (2007) Biochemical and Biophysical Research Communications 358, 1-6). K18PL (2 μl of a 30 μM stock that also contained 0.24 μM Alexa Red-labeled K18PL) was dispensed into black 1536-well plates (Grenier) using a solenoid-based dispenser. Following transfer of 23 nL of test compound or DMSO vehicle by a pin tool from compound library plates, 2 μl/well of 40 μM heparin in reagent buffer was dispensed and the plate was centrifuged for 15 s at 1000 rpm in a table-top centrifuge. The fibrillization reaction proceeded for 6 hours at 37° C. in a humidified incubator (Kalypsys).
K18PL fibril formation was quantified with a ThT assay as previously described (Crowe, A., Ballatore, C., Hyde, E., Trojanowski, J. Q., and Lee, V. M. Y. (2007) Biochemical and Biophysical Research Communications 358, 1-6). Briefly, 1 μl/well of 62.5 μM ThT (Sigma) in 100 mM glycine, pH 8.5 (12.5 μM final concentration) was dispensed into 1536-well plates after completion of the fibrillization reaction and incubated at room temperature for 1 hour. Plates were read on an Envision fluorescence plate reader with an excitation of 450 nm and an emission setting of 510 nm.
Compound effects on tau assembly were determined for the ThT and FP assays using the formula 1−(Fcompound− FDMSO)/( Fcontrol− FDMSO), where Fcontrol denotes the median plate fluorescence values (ThT assay) or mP values (FP assay) of the non-fibrillizing K18 KD control wells, FDMSO denotes the median value of the DMSO control wells, and Fcompound denotes the compound well values. The resulting values were multiplied by 100 to obtain the percent inhibition of tau fibril formation.
(§1) The solubility of test compounds in the sodium acetate buffer used for subsequent fibrillization reactions was determined by turbidimetric measurements. Compounds were then evaluated in a heparin-induced tau assembly assay, in which the fibrillization of the truncated K18 tau fragment (comprised of four MT-binding repeats) bearing the P301L mutation (K18PL) found in FTDP-17, was monitored by thioflavine-T (ThT) binding and fluorescence (FIG. 3A). (Crowe, A.; et al., Identification of aminothienopyridazine inhibitors of tau assembly by quantitative high-throughput screening. Biochemistry 2009, 48, 7732-45.) The inhibitory activity of test compounds was then confirmed with an orthogonal sedimentation assay in which compound-treated fibrillizing mixtures were centrifuged and quantitation of K18PL tau in the soluble and insoluble fraction was performed by densitometric analyses of SDS-PAGE (FIG. 3B). […] Thus, the tau fibrillization assay was repeated in which both DMSO- and compound-treated mixtures were initially centrifuged for 30 min. prior to incubation (i.e., at time zero of the fibrillization reaction) to remove any pelletable material.

Series [2] deals with T1, K18PL tau. The series is described as follows: K18PL tau centrifugation (sedimentation) assay, SDS-PAGE densitometry. To be noted: K18PL tau centrifugation assay. Type of series: biochemical. As for the experimental part:
The determination of compound-induced effects on the amount of tau that remains soluble upon centrifugation, and EM visualization of tau species following incubation with test compounds, were as previously described (Crowe, A., Ballatore, C., Hyde, E., Trojanowski, J. Q., and Lee, V. M. Y. (2007) Biochemical and Biophysical Research Communications 358, 1-6).
as §1

In series [3] the target is T2, Aβ(1-42) (Homo sapiens, UniProt P05067).
T2 construct: Synthetic Aβ(1-42) peptide (rPeptide); purchased rPeptide
The series is described as follows: Aβ(1-42) fibrillization assay (ThT). Type of series: biochemical. The settings on record: Table 3; highest tested concentration (80 μM); read-out: Aβ42 ThT Assay % Inhib.

Where [4] appears, read: Table 3, NC = not calculated due to insufficient activity.

T1 sequence (P10636 561-686 P618L): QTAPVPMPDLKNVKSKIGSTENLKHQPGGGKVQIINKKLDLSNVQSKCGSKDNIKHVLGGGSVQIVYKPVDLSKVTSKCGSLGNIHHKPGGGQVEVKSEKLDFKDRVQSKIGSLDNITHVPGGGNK
T2 sequence (P05067 672-713 limits assumed): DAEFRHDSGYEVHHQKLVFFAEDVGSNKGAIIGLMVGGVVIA

The molecule `CCOC(=O)c1nn(-c2ccc(NC)cc2)c(=O)c2c(N)scc12` [CNDR-51358, Ethyl 5-amino-3-(4-(methylamino)phenyl)-4-oxo-3,4-dihydrothieno[3,4-d]pyridazine-1-carboxylate] displayed a melting point of 211 to 213 °C. In series [1] (Table 4), the inhibition at 80 µM stood at 76% and the IC50 was 3.98 µM. Also, the “Tau Cent. Assay % Soluble” value in series [2] (Table 4) is recorded as 61%.
As for `CCOC(=O)c1nn(-c2ccc(N(C)C)cc2)c(=O)c2c(N)scc12` [CNDR-51359, Ethyl 5-amino-3-(4-(dimethylamino)phenyl)-4-oxo-3,4-dihydrothieno[3,4-d]pyridazine-1-carboxylate], the melting point lay within 211 to 213 °C. In series [1] (Table 4), the inhibition at 80 µM came to 68% and the IC50 was 3.16 µM. The “Tau Cent. Assay % Soluble” value in series [2] (Table 4) is 70%.
The molecule `CCOC(=O)c1nn(-c2ccc(Br)cc2)c(=O)c2c(N)scc12` [CNDR-51386, Ethyl 5-amino-3-(4-bromophenyl)-4-oxo-3,4-dihydrothieno[3,4-d]pyridazine-1-carboxylate] showed a melting point of 198 to 200 °C.
As for `CCOC(=O)c1nn(-c2ccc(N=[N+]=[N-])cc2)c(=O)c2c(N)scc12` [CNDR-51412, Ethyl 5-amino-3-(4-azidophenyl)-4-oxo-3,4-dihydrothieno[3,4-d]pyridazine-1-carboxylate], the melting point was in the range of 169 to 170 °C. In addition, in series [1] (Table 4), the inhibition at 80 µM worked out at 80% and the half-inhibitory concentration (IC50) was 6.31 µM. Moreover, in series [2] (Table 4), the “Tau Cent. Assay % Soluble” value is on record as 51%.
In turn, `CCOC(=O)c1ccccc1-n1nc(C(=O)OCC)c2csc(N)c2c1=O` [CNDR-51419, Ethyl 5-amino-3-(2-(ethoxycarbonyl)phenyl)-4-oxo-3,4-dihydrothieno[3,4-d]pyridazine-1-carboxylate] came in with a melting point of 176 to 178 °C. Also, in series [1] (Table 4), the inhibition at 80 µM is 65% and the IC50 was 1.26 µM. Further, the “Tau Cent. Assay % Soluble” value in series [2] (Table 4) is recorded as 40%.
The molecule `CCOC(=O)c1cccc(-n2nc(C(=O)OCC)c3csc(N)c3c2=O)c1` [CNDR-51420, Ethyl 5-amino-3-(3-(ethoxycarbonyl)phenyl)-4-oxo-3,4-dihydrothieno[3,4-d]pyridazine-1-carboxylate] gave a melting point of 159 to 160 °C. Besides, in series [1] (Table 4), the inhibition at 80 µM is 74% and the IC50 is 2 µM. In series [2] (Table 4), the “Tau Cent. Assay % Soluble” value is 83%.
`CCOC(=O)c1nn(-c2ccccc2Br)c(=O)c2c(N)scc12` [CNDR-51421, Ethyl 5-amino-3-(2-bromophenyl)-4-oxo-3,4-dihydrothieno[3,4-d]pyridazine-1-carboxylate] gave a melting point of 203 to 205 °C. In addition, in series [1] (Table 4), the inhibition at 80 µM was found to be 100% and the half-inhibitory concentration (IC50) was 6.31 µM. In series [2] (Table 4), the “Tau Cent. Assay % Soluble” value is 66%.
In the case of `CCOC(=O)c1nn(-c2cccc(Br)c2)c(=O)c2c(N)scc12` [CNDR-51422, Ethyl 5-amino-3-(3-bromophenyl)-4-oxo-3,4-dihydrothieno[3,4-d]pyridazine-1-carboxylate], the melting point lay in the range of 163 to 165 °C. Also, in series [1] (Table 4), the inhibition at 80 µM was found to be 87% and the IC50 is 1 µM. The “Tau Cent. Assay % Soluble” value in series [2] (Table 4) turned out to be 67%.
In the same order, the values of `CCOC(=O)c1nn(-c2cccc(C)c2)c(=O)c2c(N)scc12` [CNDR-51423, Ethyl 5-amino-4-oxo-3-(m-tolyl)-3,4-dihydrothieno[3,4-d]pyridazine-1-carboxylate] are 190 to 191 °C, 80%, 1.26 µM and 29%.
In the case of `Nc1nn(-c2ccccc2)c(=O)c2c(N)scc12` [Compound 14], the inhibition at 80 µM in series [3] amounted to 21%; in series [1] (Table 3), 92%. Further, the half-inhibitory concentration (IC50) in series [1] (setting [4]) was 6.31 µM. In addition, the “Tau Cent. Assay % Soluble” value in series [2] (Table 3) came to 86%.
For `Nc1scc2c(CO)nn(-c3ccccc3)c(=O)c12` [Compound 15], the inhibition at 80 µM in series [3] was 10%; in series [1] (Table 3), 91%. Moreover, in series [1] (setting [4]), the IC50 was 6.31 µM. In addition, in series [2] (Table 3), the “Tau Cent. Assay % Soluble” value was 81%.
Take `CC(=O)Nc1sc(C)c2cnn(-c3ccccc3)c(=O)c12` [Compound 16]: the inhibition at 80 µM in series [3] was -11%; in series [1] (Table 3), 11%. Also, in series [2] (Table 3), the “Tau Cent. Assay % Soluble” value worked out at 5%.
As to `COC(=O)c1nn(-c2ccc(F)cc2)c(=O)c2c(N)scc12` [Compound 18], the inhibition at 80 µM worked out at 29% in series [3] and 86% in series [1] (Table 3). Further, in series [1] (setting [4]), the IC50 is 5.01 µM. In addition, in series [2] (Table 3), the “Tau Cent. Assay % Soluble” value was found to be 64%.
